Reference: patent US20120115742A1, “METHODS FOR IDENTIFICATION” (Cambridge Enterprise Limited, priority 2009, published 2012)

Tests used:
[1] = tested on: Jurkat-D3B cells; assay: SDF-1α induced migration of Jurkat-D3B cells expressing sstr2; type: cell-based, human; conditions: Jurkat-D3B versus parental Jurkat
Procedure: Methods: Total mRNA was prepared from Panc-1 cells (a human pancreas cell line which is well known to express high levels of sstr2) using the RNAqueous 4PCR kit (Ambion, Cat code #1914) in accordance with the manufacturer's instructions. The mRNA was then reverse transcribed (using the RETROscript kit; Ambio) to yield a cDNA preparation. A full length cDNA of the sstr2 gene was then obtained by PCR (using a Peltier PTC-200 thermal cycler using the following cycle times and conditions: 94° C. for 2 min, followed by 30 cycles of 94° C., for 30 sec, 55° C. for 30 sec, 72° C. for 1 min and finally 72° C. for 10 min), and isolated by preparative gel electrophoresis. The sequence of the sstr2 cDNA was confirmed by sequencing. The sstr2 cDNA was treated with EcoRI and Xhol to generate sticky ends, which allowed directional cloning into the polylinker of the plasmid pcDNA3.1+ (Invitrogen) followed by ligation ([…] ligation reactions were run with 400 T4 DNA ligase (New England Biolabs) and the maximal amounts of DNA with an insert:plasmid ratio of 3:1 in ligase buffer incubated overnight at 13° C.). […]
A number of individual cell lines were obtained in this way, which expressed significant levels of sstr2 on the cell surface, detected by flow cytometry using the human-sstr2 antibody (Sigma, 50694; see Example 3 for details of the flow cytometry protocol used). […]

[2] = tested on: TNF-alpha; assay: Sub-lethal endotoxemia model, serum TNF-alpha after LPS; type: in vivo, mouse; conditions: dose-dependent; BN83250 s.c., valerolactam oral gavage
Procedure: We selected the sub-lethal endotoxemia model in mouse, because this has been well characterised in our laboratory (see for example Fox et al. (2002) J. Med. Chem. 45:360-70; Fox et al. (2005) J. Med. Chem. 48:867-74). The extent of systemic inflammation in response to a single intraperitoneal injection of bacterial lipopolysaccharide (LPS) can be estimated by measuring serum TNF-alpha 2 hours post challenge.
Methods: Mice (CD1 strain; adult males; 6 per group) were treated with BSCI (in an appropriate vehicle) or with vehicle alone by an appropriate route. […] Simultaneously, one set of mice at each BSCI concentration received BIM 23627 at 4 mg/animal (120 mg/kg) by sub-cutaneous injection (a treatment condition known to suppress classical sstr2-mediated signalling, such as GH release, in rats; Tulipano et al. (2002) 143:1218-24). Between 30 mins and 1 hour after dosing (a period when a maximal plasma concentration of BSCI has been achieved), the inflammatory challenge was elicited by intraperitoneal injection of 750 μg of LPS (Sigma; L4130 lot#024K4077; 900,000 EU/mg).
After a further 2 hours, the animals were sacrificed by CO2 asphyxiation, and blood was drawn by cardiac puncture. Serum was prepared by conventional methods, and the level of TNF-alpha in serum was measured using an ELISA (R&D Systems; Murine Quantikine code# MTA00) performed in accordance with the manufacturer's instructions.

[3] = tested on: THP-1 cells; assay: MCP-1 induced THP-1 cell migration (Transwell/ChemoTx)
Procedure: Leukocyte migration was measured using the 96-well format micro Transwell® assay system from Neuroprobe (Gaithersburg, Md., USA). In principle, this assay consists of two chambers separated by a porous membrane. The chemoattractant is placed in the lower compartment and the cells are placed in the upper compartment.
First, the cell suspension to be placed in the upper compartment was prepared. The THP-1 cells were pelleted by centrifugation (770×g; 4 mins) and washed with Geys Balanced Salt Solution with 1 mg/ml BSA (GBSS+BSA). This wash was then repeated, and the cells re-pelleted before being resuspended in a small volume of GBSS+BSA for counting, for example using a standard haemocytometer.
This ensured that there were 100,000 THP-1 cells in each 25 μl of the solution to be placed in the upper chamber of the plate.
To the third pot, GBSS+BSA plus vehicle as appropriate was added so that the volumes in three pots are equal, acting as a control.
Next, the chemoattractant solution to be placed in the lower compartment was prepared. […] This solution was divided into three pots, as for the cell suspension. To one pot, the BSCI was added to the same final concentration as was added to the cell suspension, in the second pot the BSCI and the sstr2 antagonist were both added at the same concentration as previously added to the cell suspension, while to the remaining pot GBSS+BSA plus vehicle as appropriate was added so that the volumes in the three pots were equal.
Once the chemoattractant solutions for the lower wells and cell solutions for the upper chambers were prepared, the migration chamber was assembled. 29 μl of the appropriate chemoattractant solution was placed into the lower well of the chamber. Assays were performed with at least triplicate determinations of each condition. Once all the lower chambers were filled, the porous membrane was applied to the chamber in accordance with the manufacturer's instructions. Finally, 25 μl of the appropriate cell solution was applied to each upper chamber. A plastic lid was placed over the entire apparatus to prevent evaporation.
The assembled chamber was incubated at 37° C., 5% CO2, for 2 hours.
At the end of the incubation, the liquid cell suspension was gently removed from the upper chamber, 20 μl of ice-cold 20 mM EDTA in PBS was added to the upper chamber, and the apparatus was incubated at 4° C. for 15 mins. This procedure caused any cells adhering to the underside of the membrane to fall into the lower chamber.
After this incubation the filter was carefully flushed with GBSS+BSA to wash off the EDTA, and then the filter was removed.
The number of cells migrated into the lower chamber under each condition can then be determined by a number of methods, including direct counting, labelling with fluorescent or radioactive markers or through the use of a vital dye. Typically, we utilised the vital dye MTT. 3 μl of stock MTT solution were added to each well, and then the plate was incubated at 37° C. for 1-2 hours during which time dehydrogenase enzymes within the cells converted the soluble MTT to an insoluble blue formazan product that could be quantified spectrophotometrically.
In parallel, an 8-point standard curve was set up. Starting with the number of cells added to each upper chamber (100,000) and going down in 2-fold serial dilutions in GBSS+BSA, the cells were added to a plate in 25 with 3 μl of MTT stock solution added. The standard curve plate was incubated along side the migration plate. At the end of this incubation, the liquid was carefully removed from the lower chambers, taking care not to disturb the precipitated formazan product.
The MCP-1 stimulated migration was determined by subtracting the average number of cells that reached the lower compartment in wells where no MCP-1 was added from the average number of cells that reached the lower compartment where MCP-1 was present at 25 ng/ml.

[4] = tested on: rat peripheral blood leukocytes; assay: Rat chemokine-induced PBMC migration assay; type: cell-based
Procedure: Similarly, where human Panc-2H4 cells are used to determine the effect of agents on classical sstr2 targets, the result is compared with the effect of the same agents on chemokine-induced migration of human THP-1 cells. […] For this reason, the ratio of “classical” to “BSCI” activity in Table 3 is calculated separately for rat and human.

“(S)-3-(2′,2′-dimethyldodecanoyl)amino-caprolactam [BN83250]” was tested, and the “increase in BSCI sensitivity by ectopic expression of sstr2” value [1] was “more than 100 fold”, the “inhibition of LPS-induced systemic inflammation” value [2] was “dramatically inhibited” and the ““Classical”:“BSCI” potency ratio, Human” value ([3]; THP-1 migration ED50 versus Panc-2H4 insulin ED50) was <0.00009. The “Human chemokine-induced THP-1 migration assay Max effect” value ([3]; Table 3) was 100%, the “Chemokine-induced THP-1 cell migration assay Max Effect” value ([3]; Table 5) was 100% and the RATIO ([3]; Table 5, migration ED50 versus insulin ED50) was <0.00009. For the same substance, the ““Classical”:“BSCI” potency ratio, Rat” value ([4]; PBMC migration ED50 versus pituicyte GH ED50) was 0.0009 and the “Rat chemokine-induced PBMC migration assay Max effect” value ([4]; Table 3) was 100%.
